ChEMBL document CHEMBL1158034, “Synthesis and cytotoxicity of racemic isodeoxypodophyllotoxin analogues with isoprene-derived side chains” (J Nat Prod, 2006)

How the values were obtained:
Type in all cases: functional, cell-based
A549 = test: Cytotoxicity against human A549 cells after 72 hrs by MTT assay; details: A549, 72 h
HL-60 = test: Cytotoxicity against human HL-60 cells after 72 hrs by MTT assay; details: HL-60, 72 h
KB = test: Cytotoxicity against human KB cells after 72 hrs by MTT assay
[1] = Cytotoxicity against human BEL-7404 cells after 72 hrs by MTT assay; details: BEL-7404, 72 h

COC(=O)[C@H]1[C@H](CO)Cc2cc(OC)c(OC)c(OC)c2[C@@H]1c1ccc(O)c(OC)c1 (racemic)
IC50 (A549): 14.5 µM

COc1cc([C@@H]2c3cc4c(cc3[C@@H](O[C@@H]3O[C@@H]5CO[C@@H](C)O[C@H]5[C@H](O)[C@H]3O)[C@H]3COC(=O)[C@H]23)OCO4)cc(OC)c1O [ETOPOSIDE]
IC50 (HL-60): 10.5 µM

COc1cc2c(cc1OC)[C@H](c1ccc(OCc3ccccc3)c(OC)c1)[C@H]1C(=O)OC[C@@H]1C2 (racemic)
IC50 (KB): 2.65 µM
IC50 [1]: 14.8 µM

COC(=O)[C@H]1[C@H](CO)Cc2cc(OC)c(OC)c(OC)c2[C@@H]1c1ccc(OC/C=C(\C)CCC=C(C)C)c(OC)c1 (racemic)
IC50 (HL-60): 4.54 µM

COc1cc2c(cc1OC)[C@H](c1ccc(OC)c(OC/C=C(\C)CC/C=C(\C)CCC=C(C)C)c1)[C@H]1C(=O)OC[C@@H]1C2 (racemic)
IC50 (KB): 3.76 µM
IC50 [1]: 5.63 µM
